# Test results reported in patent publication US20230055237A1, “COMPOUNDS AND METHODS FOR THE TREATMENT OF CYSTIC FIBROSIS” (Flatley Discovery Lab, LLC, priority 2019, published 2023).
# Molecular target: T1, CFTR (Homo sapiens, UniProt P13569, DEL508-508)
# T1 construct: Primary CF airway epithelial cells were obtained from the UNC Cystic Fibrosis Tissue Procurement and Cell Culture Core; host or cells: primary CF airway epithelial cells, differentiated at the air-liquid interface
# Test: Equivalent current assay in primary CF airway epithelial cells (NAUC, combination with 1st site corrector FDL169 or VX-809)
# Format: cell-based
# Conditions: 37° C., 24 h; for Nauc @ 10 μM: test compound 10 μM in combination with 1st site corrector VX-809 (3 μM)
# [1] = test compound 1 μM in combination with 1st site corrector VX-809 (3 μM)
# [2] = test compound 3 μM in combination with 1st site corrector VX-809 (3 μM)
# [3] = test compound 1 μM in combination with 1st site corrector FDL169 (3 μM)
# [4] = test compound 3 μM in combination with 1st site corrector FDL169 (3 μM)
# T1 sequence (P13569 with tags, fused parts or gaps DEL508-508): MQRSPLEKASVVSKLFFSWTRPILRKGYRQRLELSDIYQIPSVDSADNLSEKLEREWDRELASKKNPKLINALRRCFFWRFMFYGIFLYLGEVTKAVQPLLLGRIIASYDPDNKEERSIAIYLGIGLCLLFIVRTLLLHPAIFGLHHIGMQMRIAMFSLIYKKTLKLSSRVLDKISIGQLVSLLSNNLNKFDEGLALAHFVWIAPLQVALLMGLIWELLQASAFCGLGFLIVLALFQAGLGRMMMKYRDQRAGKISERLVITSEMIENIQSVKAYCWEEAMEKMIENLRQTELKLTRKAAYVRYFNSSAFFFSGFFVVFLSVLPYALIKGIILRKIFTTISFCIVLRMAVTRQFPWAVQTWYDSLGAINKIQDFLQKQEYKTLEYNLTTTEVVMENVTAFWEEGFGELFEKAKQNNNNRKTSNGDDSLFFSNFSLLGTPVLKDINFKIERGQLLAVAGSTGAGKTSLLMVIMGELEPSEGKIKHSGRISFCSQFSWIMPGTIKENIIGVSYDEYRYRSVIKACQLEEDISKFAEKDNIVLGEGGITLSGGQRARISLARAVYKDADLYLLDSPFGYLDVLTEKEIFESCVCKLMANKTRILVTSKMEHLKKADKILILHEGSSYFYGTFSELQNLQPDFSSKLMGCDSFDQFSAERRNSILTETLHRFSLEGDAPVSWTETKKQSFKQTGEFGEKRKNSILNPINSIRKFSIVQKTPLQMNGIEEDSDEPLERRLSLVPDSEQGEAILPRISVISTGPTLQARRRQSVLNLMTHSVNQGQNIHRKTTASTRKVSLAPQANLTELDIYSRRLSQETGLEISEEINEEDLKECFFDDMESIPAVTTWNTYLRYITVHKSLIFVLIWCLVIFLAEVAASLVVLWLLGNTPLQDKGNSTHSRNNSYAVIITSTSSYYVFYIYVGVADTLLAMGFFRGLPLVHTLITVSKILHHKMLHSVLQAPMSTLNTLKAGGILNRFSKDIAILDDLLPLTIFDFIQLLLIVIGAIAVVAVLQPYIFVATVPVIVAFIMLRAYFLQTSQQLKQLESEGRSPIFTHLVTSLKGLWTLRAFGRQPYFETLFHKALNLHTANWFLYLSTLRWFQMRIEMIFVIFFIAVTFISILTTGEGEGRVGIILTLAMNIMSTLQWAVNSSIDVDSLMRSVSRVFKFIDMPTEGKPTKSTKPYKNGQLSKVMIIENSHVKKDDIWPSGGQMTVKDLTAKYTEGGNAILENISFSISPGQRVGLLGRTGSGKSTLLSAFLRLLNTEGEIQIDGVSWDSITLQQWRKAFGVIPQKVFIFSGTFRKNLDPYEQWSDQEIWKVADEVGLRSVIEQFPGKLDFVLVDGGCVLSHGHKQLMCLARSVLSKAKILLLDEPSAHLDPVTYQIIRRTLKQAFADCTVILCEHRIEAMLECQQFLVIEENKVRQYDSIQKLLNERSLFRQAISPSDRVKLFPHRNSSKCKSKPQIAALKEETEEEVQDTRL
Compound,Nauc @ 1 μM [1],Nauc @ 3 μM [2],Nauc @ 10 μM,Nauc @ 1 μM [3],Nauc @ 3 μM [4]
"CONC(=O)[C@H]1[C@@H](C(=O)Nc2cc(Cl)cc(Cl)c2)[C@H]2CCCN2C12C(=O)Nc1c(Cl)cc(Cl)cc12 (stereo partly drawn) [Example 233, (1′R,2′S,7a′R)-5,7-dichloro-N1′-(3,5-dichlorophenyl)-N2′-methoxy-2-oxo-1′,2′,5′,6′,7′,7a′-hexahydrospiro[indoline-3,3′-pyrrolizine]-1,2′-dicarboxamide]",++ (NAUC “++” refers to an observed NAUC 170-140% of positive control),+++ (NAUC “+++” refers to an observed NAUC>170% of positive control),+++ (NAUC “+++” refers to an observed NAUC>170% of positive control),,
"CN(C(=O)C1C2N(CCC2(F)F)C2(C(=O)Nc3c(Cl)cc(Cl)cc32)C1C(=O)O)c1cc(Cl)cc(Cl)c1 (single isomer, unassigned) [Example 268a, 5,7-dichloro-1′-((3,5-dichlorophenyl)(methyl)carbamoyl)-7′,7′-difluoro-2-oxo-1′,2′,5′,6′,7′,7a′-hexahydrospiro[indoline-3,3′-pyrrolizine]-2′-carboxylic acid]",+ (NAUC “+” refers to an observed NAUC <140% of positive control),+ (NAUC “+” refers to an observed NAUC <140% of positive control),+ (NAUC “+” refers to an observed NAUC <140% of positive control),,
"CN(O)C(=O)C1C(C(=O)Nc2cc(Cl)cc(Cl)c2)C2CC(F)(F)CN2C12C(=O)Nc1c(Cl)cc(Cl)cc12 (single isomer, unassigned) [Example 225b, 5,7-dichloro-N1′-(3,5-dichlorophenyl)-6′,6′-difluoro-N2′-hydroxy-N2′-methyl-2-oxo-1′,2′,5′,6′,7′,7a′-hexahydrospiro[indoline-3,3′-pyrrolizine]-1′,2′-dicarboxamide]",+ (NAUC “+” refers to an observed NAUC <140% of positive control),+++ (NAUC “+++” refers to an observed NAUC>170% of positive control),+++ (NAUC “+++” refers to an observed NAUC>170% of positive control),,
"CN(C(=O)C1C2CC(F)(F)CN2C2(C(=O)Nc3c(Cl)cc(Cl)cc32)C1C(=O)O)c1cc(C(F)(F)F)cc(C(F)(F)F)n1 (single isomer, unassigned) [Example 273b, 1′-((4,6-bis(trifluoromethyl)pyridin-2-yl)(methyl)carbamoyl)-5,7-dichloro-6′,6′-difluoro-2-oxo-1′,2′,5′,6′,7′,7a′-hexahydrospiro[indoline-3,3′-pyrrolizine]-2′-carboxylic acid]",,,,+ (NAUC “+” refers to an observed NAUC <140% of positive control),++ (NAUC “++” refers to an observed NAUC 170-140% of positive control)
"CC(=O)NNC(=O)[C@H]1[C@@H](C(=O)Nc2cc(Cl)cc(Cl)c2)[C@H]2CCCN2[C@]12C(=O)Nc1c(Cl)cc(Cl)cc12 (single isomer, unassigned) [Example 242, (1′R,2′S,7a′R)-2′-(2-acetylhydrazine-1-carbonyl)-5,7-dichloro-N-(3,5-dichlorophenyl)-2-oxo-1′,2′,5′,6′,7′,7a′-hexahydrospiro[indoline-3,3′-pyrrolizine]-1-carboxamide]",+ (NAUC “+” refers to an observed NAUC <140% of positive control),+ (NAUC “+” refers to an observed NAUC <140% of positive control),+ (NAUC “+” refers to an observed NAUC <140% of positive control),,
"Cn1cnc(NC(=O)[C@H]2[C@@H](C(=O)Nc3cc(Cl)cc(Cl)c3)[C@H]3CCCN3[C@]23C(=O)Nc2c(Cl)cc(Cl)cc23)c1 (single isomer, unassigned) [Example 237, (1′R,2′S,7a′R)-5,7-dichloro-N1′-(3,5-dichlorophenyl)-N2′-(1-methyl-1H-imidazol-4-yl)-2-oxo-1′,2′,5′,6′,7′,7a′-hexahydrospiro[indoline-3,3′-pyrrolizine]-1′,2′-dicarboxamide]",+ (NAUC “+” refers to an observed NAUC <140% of positive control),+ (NAUC “+” refers to an observed NAUC <140% of positive control),++ (NAUC “++” refers to an observed NAUC 170-140% of positive control),,
O=C(Nc1ncnc2ccccc12)[C@H]1[C@H]2CC(F)(F)CN2[C@]2(C(=O)Nc3c(Cl)cc(Cl)cc32)[C@H]1C(=O)O [Example 144],,,,+ (NAUC “+” refers to an observed NAUC <140% of positive control),+ (NAUC “+” refers to an observed NAUC <140% of positive control)
Cn1ccc2ccc(NC(=O)[C@H]3[C@H]4CC(F)(F)CN4[C@]4(C(=O)Nc5c(Cl)cc(Cl)cc54)[C@H]3C(=O)O)cc21 [Example 136],,,,+ (NAUC “+” refers to an observed NAUC <140% of positive control),+ (NAUC “+” refers to an observed NAUC <140% of positive control)
O=C(Nc1cc(Cl)cc(Cl)c1)C1C2N(CCC2(F)F)C2(C(=O)Nc3c(Cl)cc(Cl)cc32)C1C(=O)O (stereo not drawn) [Example 60],,+++ (NAUC “+++” refers to an observed NAUC>170% of positive control),+++ (NAUC “+++” refers to an observed NAUC>170% of positive control),,
"CC(C)(C)CN(C(=O)[C@H]1[C@H]2C[C@](C)(OCc3ccccc3)CN2[C@]2(C(=O)Nc3c(Cl)cc(Cl)cc32)[C@H]1C(=O)O)c1cc(Cl)cc(Cl)c1 [Example 90, (1′R,2′S,3R,6′S,7a′R)-6′-(benzyloxy)-5,7-dichloro-1-((3,5-dichlorophenyl)(neopentyl)carbamoyl)-6′-methyl-2-oxo-1′,2′,5′,6′,7′,7a′-hexahydrospiro[indoline-3,3′-pyrrolizine]-2′-carboxylic acid]",,,,+ (NAUC “+” refers to an observed NAUC <140% of positive control),+ (NAUC “+” refers to an observed NAUC <140% of positive control)
Cc1nn(C)cc1N(CC1CC1)C(=O)[C@H]1[C@H]2CC(F)(F)CN2[C@]2(C(=O)Nc3c(Cl)cc(Cl)cc32)[C@H]1C(=O)O [Example 165],,,,+ (NAUC “+” refers to an observed NAUC <140% of positive control),+ (NAUC “+” refers to an observed NAUC <140% of positive control)
O=C(NCCc1ccc(Cl)cc1)C1C2CC(F)(F)CN2C2(C(=O)Nc3c(Cl)cc(Cl)cc32)C1C(=O)O (stereo not drawn) [Example 52],,++ (NAUC “++” refers to an observed NAUC 170-140% of positive control),+++ (NAUC “+++” refers to an observed NAUC>170% of positive control),,
CC(=O)N1C(COCc2ccccc2)C(C(=O)Nc2cc(Cl)cc(Cl)c2)C(C(=O)O)C12C(=O)Nc1c(Cl)cc(Cl)cc12 (stereo not drawn) [Example 36],,+ (NAUC “+” refers to an observed NAUC <140% of positive control),+++ (NAUC “+++” refers to an observed NAUC>170% of positive control),,
O=C(Nc1cc(C(F)(F)F)cc(C(F)(F)F)n1)C1C2C[C@@](O)(C(F)(F)F)CN2C2(C(=O)Nc3c(Cl)cc(Cl)cc32)C1C(=O)O (stereo partly drawn) [Example 55],,++ (NAUC “++” refers to an observed NAUC 170-140% of positive control),+ (NAUC “+” refers to an observed NAUC <140% of positive control),,
O=C(Nc1ccc2ccccc2c1)[C@H]1[C@H]2CC(F)(F)CN2[C@]2(C(=O)Nc3c(Cl)cc(Cl)cc32)[C@H]1C(=O)O [Example 117],+ (NAUC “+” refers to an observed NAUC <140% of positive control),++ (NAUC “++” refers to an observed NAUC 170-140% of positive control),+ (NAUC “+” refers to an observed NAUC <140% of positive control),,
